Biological target: T1, TRPV3 (Homo sapiens, UniProt Q8NET8)
T1 construct: YFP or GFP; expressed in transfected cells; host or cells: HEK293T
T1 sequence (Q8NET8 1-790): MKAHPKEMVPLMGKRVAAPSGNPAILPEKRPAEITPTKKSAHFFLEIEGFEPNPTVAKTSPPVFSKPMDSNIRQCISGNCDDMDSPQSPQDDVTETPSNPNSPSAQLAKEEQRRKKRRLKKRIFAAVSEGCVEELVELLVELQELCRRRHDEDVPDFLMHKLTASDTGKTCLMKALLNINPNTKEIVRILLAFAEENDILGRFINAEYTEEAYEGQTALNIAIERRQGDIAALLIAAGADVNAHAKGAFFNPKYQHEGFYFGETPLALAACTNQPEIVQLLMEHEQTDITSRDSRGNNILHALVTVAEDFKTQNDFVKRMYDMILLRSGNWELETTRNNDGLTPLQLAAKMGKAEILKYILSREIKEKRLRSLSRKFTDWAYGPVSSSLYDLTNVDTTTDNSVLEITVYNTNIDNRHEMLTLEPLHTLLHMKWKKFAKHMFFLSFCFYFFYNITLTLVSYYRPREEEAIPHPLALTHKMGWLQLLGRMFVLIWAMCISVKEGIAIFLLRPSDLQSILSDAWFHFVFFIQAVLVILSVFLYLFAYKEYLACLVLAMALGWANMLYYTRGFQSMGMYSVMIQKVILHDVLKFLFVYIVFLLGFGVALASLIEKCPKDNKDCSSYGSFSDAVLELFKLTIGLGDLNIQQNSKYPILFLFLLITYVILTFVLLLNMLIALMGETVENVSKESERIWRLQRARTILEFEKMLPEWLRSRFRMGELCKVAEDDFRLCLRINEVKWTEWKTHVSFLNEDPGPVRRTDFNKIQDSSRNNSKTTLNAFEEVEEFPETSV
Assay: Calcium imaging (Fluo-4/AM) of TRPV3-expressing HEK293T cells
Format: cell-based
Protocol: HEK293T cells are cultured using Dulbecco's modified Eagle's medium containing 10% fetal bovine serum and 1% penicillin-streptomycin in a cell incubator with 5% CO2 at 37 °C. Plasmids of murine TRPV1, TRPV4, TRPM8, and human TRPV3, TRPA1 are labeled with YFP or GFP as indicators for subsequent electrophysiological recordings. Complementary DNA constructs of ion channels were transiently transfected with Lipofectamine 3000 (Invitrogen). And 12 to 18 h after transient transfection, electrophysiological recordings were performed.
Calcium imaging assays were performed as described previously ([37]). Transiently transfected HEK293 cells seeded on 25 mm coverslips were washed twice with an extracellular solution containing 140 mM NaCl, 5 mM KCl, 2 mM MgCl2, 2 mM CaCl2, 10 mM glucose, and 10 mM Hepes (pH 7.4), followed by incubation in 2 ml of extracellular solution supplemented with 2 μM Fluo-4/AM as a Molecular Probes at room temperature for 60 min. Fluorescence images of HEK293T cells were acquired with a Nikon Eclipse Ti2 microscope with an optiMOS charge-coupled device camera controlled by the Ocular Software ([…]; https://www.photometrics.com/products/ocular).

CCN(CCO)CCCC(C)Nc1ccnc2cc(Cl)ccc12 (centres unmarked) [HCQ, hydroxychloroquine]
calcium influx, area under the curve (AUC) (100 μM HCQ mixed with 1 mM 2-APB): 8.65 ± 0.83
calcium influx, area under the curve (AUC) (300 μM HCQ mixed with 1 mM 2-APB): 0.28 ± 0.05

Source: paper PMC11460631, “Inhibition of transient receptor potential vanilloid 3 channels by antimalarial hydroxychloroquine alleviates TRPV3-dependent dermatitis” (The Journal of Biological Chemistry, 2024)
